Source: patent publication US7381737B2, “Crystalline forms and process for preparing spiro-hydantoin compounds” (Bristol-Myers Squibb Company, priority 2004, dated 2008)

Row | melting point | SMILES
1 | 79 to 109 °C | CN1C(=O)N(c2cc(Cl)cc(Cl)c2)C(=O)[C@]12CN(CN1C[C@H](c3ccc(C#N)cc3)[C@@]3(C1)C(=O)N(c1cc(Cl)cc(Cl)c1)C(=O)N3C)C[C@H]2c1ccc(C#N)cc1 (hydrate or solvate) [Example 6a, Meso Aminal Dimer of 4-[3-(3,5-Dichlorophenyl)-1-methyl-2,4-dioxo-1,3,7-triazaspiro[4.4]non-9-yl]-benzonitrile]
2 | 204 to 207 °C | COC(=O)c1csc(CN2C[C@@H](c3ccc(C#N)cc3)[C@]3(C2)C(=O)N(c2cc(Cl)cc(Cl)c2)C(=O)N3C)c1.Cl (stereo in doubt)
3 | 31 to 47 °C | CN1C(=O)N(c2cc(Cl)cc(Cl)c2)C(=O)[C@]12CN(CN1C[C@@H](c3ccc(C#N)cc3)[C@]3(C1)C(=O)N(c1cc(Cl)cc(Cl)c1)C(=O)N3C)C[C@H]2c1ccc(C#N)cc1 (racemic) (hydrate or solvate) [Example 6b, Racemic Aminal Dimer of 4-[3-(3,5-Dichlorophenyl)-1-methyl-2,4-dioxo-1,3,7-triazaspiro[4.4]non-9-yl]-benzonitrile]
